# Like-named read-outs stand apart in the source and are kept apart here.
# Columns and labels:
# [1] = tested on: chloroquine-sensitive P. falciparum (NF54); assay: Antimalarial screening, [3H]hypoxanthine incorporation; format: cell-based, Plasmodium falciparum
# Method: Activity was determined by measuring the incorporation of [^3H]hypoxanthine, by the methods of Desjardins and Milhouse, with the following modifications, see […].; Haynes, […]. Antimicrob. Agents Chemother., 16: 710 (1979); Milhous, W. K.; Weatherly, […].; Antimicrob. Agents Chemother., 27: 525 (1985). […] Calbiochem #391338), 27 mM NaHCO3 (Gibco BRL # 11810-025), and 10% heat-inactivated human type O+serum (Interstate Blood Bank, Inc.), under 3% O2, 4% CO2, and 93% N2-Parasitemia was maintained at 0.05-3% and doubling time at approximately 15 hours by twice weekly change of medium and replenishment with fresh erythrocytes. […] Sigma-Aldrich #27,043-1). DMSO solutions were diluted 500-fold in medium, serially diluted in 0.2% DMSO in medium (to maintain constant solvent concentration), then 100 μL aliquots were pipetted into microtiter plate wells (Costar3595). […] Cells were harvested (Brandel MB-48R) onto GF-C glass filters (Brandel). The filters were washed five times with 3 mL water per sample spot, dried under a heat lamp, and counted (Beckman Model LS-6500) in scintillation cocktail (ICN Cytoscint). Decays per minute (dpm) values were downloaded and analyzed (Power Macintosh 7200/90; Microsoft Excel 5.0), to yield the mean and standard deviation at each drug concentration.
# [2] = in vivo; cited from earlier work
# [3] = tested on: P. berghei; conditions: P. berghei-infected mice; cited from earlier work
# [4] = rat liver microsomes; cited from earlier work
# [5] = tested on: murine keratinocyte cell line PE; assay: Growth inhibition of PE cells, MTT assay; format: cell-based; conditions: 96 hours
# Method: To determine the inhibitory effect of the compositions of the present invention on cell proliferation, screening assays were performed on a murine keratinocyte cell line PE. Cell line PE was chosen for its particular sensitivity to the induction of omithine decarboxylase (ODC) activity by the extensively characterized tumor promoter TPA. Cell line PE was derived from a papilloma-induced in female SENCAR mice by a standard skin initiation/promotion protocol, see Yuspa, S. H., et al., Carcinogenesis, 7:949-958 (1986). PE cell culture medium consisted of Eagle's minimal essential medium without calcium chloride (Whittaker Bioproducts, Walkersville, Mass.) supplemented with 8% chelexed fetal calf serum and 1% antibiotic-antimycotic (Gibco BRL) and the addition of CaCI2 to 0.05 mM Ca^++
# MTT [3-(4,5-dimethylthiazol-2-yl)-2,5-diphenyltetraxolium bromide] was purchased from Sigma Chemical Co. (St. Louis, Mo.), and TPA was supplied by L.C. Services (Woburn, Mass.). L-[^14C]omithine ([…]) was from Amersham/Searle Corp. (Arlington Heights, Ill.). Chemical solvents used in all assays of biological activity were of the highest grade commercially available.
# Growth curves, shown in FIG. 5, for PE cells treated with calcitriol and the C-10 carbon-substituted dimers VII-f, VII-g and VII-h generated by assay for the reduction of the tetrazolium-based compound MTT, see Charmichael, et al., Cancer Res., 47:936-942 (1987). A mitochondrial dehydrogenase reduces MTT to a blue formazan product with an absorbance maximum of 505 nm in DMSO; the number of viable cells can thus be determined spectrophotometrically. PE cells were seeded at a density of 5,000 cells/well in 50 IL of medium into 96-well microtiter plates. Twelve hours later, the medium was removed, and cells were treated with 100 μL of fresh medium into which the appropriate amount of calcitriol or analog dissolved in dimethyl sulfoxide (DMSO) had been added, with the concentration of DMSO held constant at 0.1 %. […] At 24-hour intervals following the initial treatment of the cells with compounds, 0.1 mg (50 μL of a 2 mg/mL solution) of MTT was added to each well. After 4 hours, the MTT was removed and DMSO added to dissolve the blue formazan dye. Using a microtiter plate reader, the A505 was then determined and cell number calculated from blank-subtracted absorbance values.
# [6] = chloroquine-sensitive P. falciparum (NF54), read-out: IC50
# [7] = Plasmodium falciparum, NF54, chloroquine-sensitive P. falciparum (NF54), read-out: IC50
compound,measurement,setting,value
10-(Benzhydryl)anhydroartemisinin [I-5],IC50,[1]; [6],0.0045 µM
"CC1=C(c2nc3ccccc3s2)OC2OC3(C)CCC4C(C)CCC1C24OO3 (stereo not drawn) [Benzo-4, 10-(2′-Benzothiazolyl)anhydroartemisinin]",IC50,[1]; [6],0.0078 µM
"CC1=C(C=Cc2ccccc2)OC2OC3(C)CCC4C(C)CCC1C24OO3 (stereo not drawn) [E-VII-c, 10-(Styryl)anhydroartemisinin]",IC50,[1]; [6],0.016 µM
"CC1=C(C=Cc2ccc([N+](=O)[O-])cc2)OC2OC3(C)CCC4C(C)CCC1C24OO3 (stereo not drawn) [E-VII-d, 10-(p-Nitrostyryl)anhydroartemisinin]",IC50,[1]; [6],0.011 µM
"CC1=C(C(=O)c2ccccc2)O[C@@H]2O[C@@]3(C)CC[C@H]4[C@H](C)CC[C@@H]1[C@@]24OO3 [I-4, 10-Benzoylanhydroartemisinin]",IC50,[1]; [7],0.0046 µM
"C[C@H]1[C@@H](O)O[C@@H]2O[C@@]3(C)CC[C@H]4[C@H](C)CC[C@@H]1[C@@]24OO3 [II-1, dihydroartemisinin]",half-life in plasma,[2],less than two hours
CC1=CO[C@@H]2O[C@]3(C)CC[C@H]4[C@H](C)CC[C@@H]1[C@@]24OO3 [III],activity in words,[3],inactive
"CC1=C(c2nccs2)O[C@@H]2O[C@@]3(C)CC[C@H]4[C@H](C)CC[C@@H]1[C@@]24OO3 [Ib, 10-(2′-Thiazolyl)anhydroartemisinin]",IC50,"[1]; Plasmodium falciparum, NF54",0.014 µM
"CC1=C(C=O)O[C@@H]2O[C@@]3(C)CC[C@H]4[C@H](C)CC[C@@H]1[C@@]24OO3 [Ie, 10-Formylanhydroartemisinin]",IC50,[1]; [7],0.037 µM
same,melting point,,115 to 117 °C
"C=CC1=C(C)C2CCC(C)C3CCC4(C)OOC23C(O1)O4 (stereo not drawn) [VII-a, 10-Vinylanhydroartemisinin]",IC50,[1]; [6],0.028 µM
"CC1=C(C=Cc2ccccc2)OC2OC3(C)CCC4C(C)CCC1C24OO3 (stereo not drawn) [Z-VII-C, 10-(Styryl)anhydroartemisinin]",IC50,[1]; [6],0.0081 µM
"CC1=C(C=Cc2ccc([N+](=O)[O-])cc2)OC2OC3(C)CCC4C(C)CCC1C24OO3 (stereo not drawn) [Z-VII-d, 10-(p-Nitrostyryl)anhydroartemisinin]",IC50,[1]; [6],0.01 µM
CCO[C@H]1O[C@@H]2O[C@@]3(C)CC[C@H]4[C@H](C)CC[C@@H]([C@H]1C)[C@@]24OO3 [arteether],conversion into dihydroartemisinin (II-1),[4],rapidly converted
"C=C1/C(=C\C=C2/CCC[C@]3(C)[C@@H]([C@H](C)CCCC(C)(C)O)CC[C@@H]23)C[C@@H](O)C[C@@H]1O [calcitriol, 1α, 25-dihydroxyvitamin D3, reference compound]",viability of treated cells by trypan blue exclusion,[5],identical to control cells
